Laboratory results from patent US8859614B2 (University of Nebraska—Lincoln, priority 2008, dated 2014).
Where “and” joins values, the source holds several entries; their conditions need not be identical. Identical values can stand only once. Entries after “also recorded” stand apart in the source; their conditions may differ.

How the values were obtained:
MDA-MB-231 cells [1] = assay: MDA-MB-231 orthotopic xenografts in SCID/NOD mice; format: in vivo, human
Experimental: (§1) Details of the preclinical trial using picropodophyllin synthesized as described (Buchardt O, et al. J. Pharm. Sci. (1986), 75:1076-1080) and Erlotinib (purchased from Hwasun Biotechnology Co) are described in Results. The drugs were dissolved in DMSO and cremophor (9:1) and injected intraperitoneally. To calculate tumor volumes, the formula for a prolate spheroid (π/6×a×b2 or ˜a×b2/2, where a and b are the major and minor axis, respectively) was used. The lengths of axes were determined microscopically from sections of tumor nodules using a computer assisted morphometry system (SpotAdvanced VS. 4.0.1, Nikon Eclipse E400). For xenograft experiments, 5×10^6 MDA-MB-231 cells were injected bilaterally into the fat pads of mammary glands 3 and 4 of female SCID/NOD mice. […] For in vitro experiments, MDA-MB-231 cells were grown in DMEM supplemented with 10% fetal bovine serum. […] Cell viability (duplicates) was measured on days 2, 4 and 6 by using the Thiazolyl Blue Tetrazolium Bromide (MTT) colorimetric assay (Mosmann T, J. Immunol. Methods (1983), 65:55-63).
Nevertheless, in conjunction with the mouse data, these observations provide strong justification for further evaluations of the drug against human breast cancer.

[2] = test system: murine breast cancer cell line derived from Kras* mice; assay: MTT cell growth assay on a Kras* breast cancer cell line; format: cell-based, mouse; details: for MTT colorimetric reading reflecting cell density, Day 2, Average / MTT colorimetric reading reflecting cell density, Day 2, individual duplicate wells / Inhibition of growth of the Kras* breast cancer cell line (in words): 500 nM, 48 h; for MTT colorimetric reading reflecting cell density, Day 2, Average: average of duplicates, Day 0 0.3675, no drug 0.792; for MTT colorimetric reading reflecting cell density, Day 2, individual duplicate wells: wells 1 and 2, Day 0 0.373/0.362, no drug 0.959/0.625
Experimental: A murine breast cancer cell line derived from Kras* mice was used to assay the effect of IGF1RK inhibitors. Approximately 30,000 cells/well were plated in a 24-well plate which corresponds to 20% confluence. The next day (Day 0 for the experiment) two of wells were treated with MTT (Thiazol Blue Tetrazolium), a substrate used in a colorimetric metabolic assay that reflects cell density. […] Forty-eight hours later the duplicate wells were assayed.

[3] = target: T1, human Insulin-like Growth Factor I Receptor Kinase (IGF1 RK) domain (Homo sapiens, UniProt P08069); details: background statement; cited from earlier work
T1 construct: human Insulin-like Growth Factor I Receptor Kinase (IGF1 RK) domain

MDA-MB-231 cells [4] = assay: MDA-MB-231 in vitro cell viability (MTT assay); format: cell-based, human; details: PPP 500 nM; MTT on days 2, 4 and 6
Text: FIG. 8A-C. In vitro inhibition of Igf1r action. Representative experiments of pharmacological inhibition of IGF1R in MDA-MB-231 cells by picropodophyllin (A) or by IGF1R knockdown using a dominant-negative construct (B) or siRNA (C). The absorbance (mean values±S.E.M.) reflects cell numbers estimated from duplicate samples using the MTT assay (see Experimental Procedures). […] (B) Plasmid 486Stop (encoding dominant-negative IGF1R) or a control plasmid (pcDNA3) were introduced in MDA-MB-231 cells by nucleofection following the manufacturer's protocol (1.5 μg of plasmid DNA per […]; Amaxa Biosystems). The same method was used to introduce into these cells a 19-bp RNA duplex (R4) targeting IGR1R mRNA or a scrambled control duplex (Scr4; see SI Materials and Methods, for details). […]
Details of the preclinical trial using picropodophyllin synthesized as described (Buchardt O, et al. J. Pharm. Sci. (1986), 75:1076-1080) and Erlotinib (purchased from Hwasun Biotechnology Co) are described in Results. […] The lengths of axes were determined microscopically from sections of tumor nodules using a computer assisted morphometry system (SpotAdvanced VS. 4.0.1, Nikon Eclipse E400). […] Cell viability (duplicates) was measured on days 2, 4 and 6 by using the Thiazolyl Blue Tetrazolium Bromide (MTT) colorimetric assay (Mosmann T, J. Immunol. Methods (1983), 65:55-63).

[5] = test system: Kras*-induced mammary carcinomas; assay: Drug treatment of Kras*-induced mouse mammary carcinomas; format: in vivo
[6] = test system: Kras*-induced mammary carcinomas; assay: as above; format: in vivo; details: for Macroscopic and histopathological effect on tumors and tumor components (in words): 3 weeks of treatment; for Tumor volume per gland / Tumor volume per gland (Table 10): Mean ± S.E.M.; for Tumor volume per gland / Tumor volume per gland, % of control (vehicle): i.p. once daily for 3 weeks, PPP 30 mg/kg, Erlotinib 50 mg/kg; for Tumor volume per gland: vehicle 217.8 ± 65.6; for Tumor volume per gland, % of control (vehicle): vehicle = 100; for Tumor volume per gland (Table 10): pooled vehicle controls 243.3 ± 68.9 (9 mice); for Potency relative to PPP against Kras*-induced mammary carcinomas: from % tumor volume versus control; for Tumor volume per gland, % of pooled vehicle control (Table 10): pooled vehicle control = 100
Experimental: as §1
First, the tumors developing in each gland tended to be multifocal and uneven, and progressively coalesced into larger masses precluding reliable evaluation.
After 21 days of treatment, the mice are sacrificed, weighed, and the initial tumors measured individually. In addition, tumors which were not palpable at the time of initial palpation, but had grown during the therapy period, are also isolated.
The efficacy of compounds 18 “(NB3)” and 21 “(NB6)” to ameliorate Kras*-induced mouse mammary carcinomas was tested. While testing NB3 and NB6 (4 mice each), 2 controls were added (2 tumor-bearing mice treated with vehicle).

insulin receptor = insulin receptor (Homo sapiens, UniProt P06213); details: Girnita 2004; Vasilcanu 2008; cited from earlier work
Sequence of insulin receptor (P06213 28-1382, species assumed): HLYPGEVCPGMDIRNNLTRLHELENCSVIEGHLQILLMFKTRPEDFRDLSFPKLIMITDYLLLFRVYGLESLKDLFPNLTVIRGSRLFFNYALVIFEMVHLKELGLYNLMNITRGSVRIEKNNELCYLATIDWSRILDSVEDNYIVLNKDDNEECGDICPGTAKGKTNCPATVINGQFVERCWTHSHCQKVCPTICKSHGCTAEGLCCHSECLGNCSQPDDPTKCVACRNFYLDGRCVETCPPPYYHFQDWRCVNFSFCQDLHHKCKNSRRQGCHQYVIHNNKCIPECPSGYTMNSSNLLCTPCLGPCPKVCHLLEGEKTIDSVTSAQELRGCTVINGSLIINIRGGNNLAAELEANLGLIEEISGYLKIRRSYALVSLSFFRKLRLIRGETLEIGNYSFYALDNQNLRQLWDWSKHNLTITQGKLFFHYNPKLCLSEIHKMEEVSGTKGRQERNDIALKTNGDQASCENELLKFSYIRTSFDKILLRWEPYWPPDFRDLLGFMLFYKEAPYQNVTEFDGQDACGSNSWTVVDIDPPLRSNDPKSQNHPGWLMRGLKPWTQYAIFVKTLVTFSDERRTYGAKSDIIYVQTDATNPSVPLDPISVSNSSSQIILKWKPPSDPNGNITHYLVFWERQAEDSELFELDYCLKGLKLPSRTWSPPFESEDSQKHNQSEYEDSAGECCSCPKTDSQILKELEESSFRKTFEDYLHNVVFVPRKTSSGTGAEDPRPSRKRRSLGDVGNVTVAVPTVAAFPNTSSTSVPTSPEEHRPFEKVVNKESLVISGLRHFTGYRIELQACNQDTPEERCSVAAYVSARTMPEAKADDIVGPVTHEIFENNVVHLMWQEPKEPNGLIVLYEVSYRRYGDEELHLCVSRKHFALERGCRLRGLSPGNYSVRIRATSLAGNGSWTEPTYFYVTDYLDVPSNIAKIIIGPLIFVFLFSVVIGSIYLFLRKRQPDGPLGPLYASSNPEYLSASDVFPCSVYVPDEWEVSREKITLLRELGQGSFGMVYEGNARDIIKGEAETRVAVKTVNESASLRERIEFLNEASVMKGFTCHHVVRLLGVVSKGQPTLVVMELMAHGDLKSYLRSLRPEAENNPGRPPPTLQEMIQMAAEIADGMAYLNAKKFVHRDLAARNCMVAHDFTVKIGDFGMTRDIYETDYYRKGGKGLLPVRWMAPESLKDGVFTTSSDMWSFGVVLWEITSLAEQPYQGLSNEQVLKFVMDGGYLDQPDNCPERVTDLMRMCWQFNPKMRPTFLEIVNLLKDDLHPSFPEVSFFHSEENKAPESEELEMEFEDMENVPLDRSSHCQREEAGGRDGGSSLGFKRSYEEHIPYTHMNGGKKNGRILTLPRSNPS

T1 sequence (P08069 999-1274 limits assumed): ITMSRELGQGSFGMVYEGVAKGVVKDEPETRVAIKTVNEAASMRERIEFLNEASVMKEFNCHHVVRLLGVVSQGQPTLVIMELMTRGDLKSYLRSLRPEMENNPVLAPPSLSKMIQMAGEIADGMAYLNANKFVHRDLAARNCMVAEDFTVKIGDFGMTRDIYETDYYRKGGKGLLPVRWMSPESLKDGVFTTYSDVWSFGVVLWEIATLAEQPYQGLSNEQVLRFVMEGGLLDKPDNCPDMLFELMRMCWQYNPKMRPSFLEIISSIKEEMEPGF

Row | SMILES | MTT colorimetric reading reflecting cell density, Day 2, Average [2] | MTT colorimetric reading reflecting cell density, Day 2, individual duplicate wells [2] | Macroscopic and histopathological effect on tumors and tumor components (in words) [6] | Tumor volume per gland [6] [mm^3] | Tumor volume per gland, % of control (vehicle) [6] | Inhibition of growth of the Kras* breast cancer cell line (in words) [2] | Tumor volume per gland (Table 10) [6] [mm^3] | Potency relative to PPP against Kras*-induced mammary carcinomas [6] | Tumor volume per gland, % of pooled vehicle control (Table 10) [6] [%] | further results
1 | COc1cc([C@@H]2c3cc4c(cc3[C@H](O)C3COC(=O)[C@H]32)OCO4)cc(OC)c1OC (single isomer, unassigned; (-)) [PPP, (−)-picropodophyllin] | 0.4775 | 0.478 and 0.477 | marked reduction or even absence of the pale and squamous cell components; also recorded: dramatically smaller; also recorded: diminishes the size of pale cell tumors | 16.0 ± 9.1 | ~7% and 7.3% |  |  |  |  | Tumor volume per gland, xenografts (MDA-MB-231 cells [1]; Mean ± S.E.M., SCID/NOD mice, PPP i.p. for 3 weeks, vehicle 304 ± 40.8): 215 ± 18.6 mm^3; Xenograft tumor growth versus vehicle-treated controls (in words) (MDA-MB-231 cells [1]; NOD/SCID mice, orthotopically injected MDA-MB-231 cells): attenuated; Tumor volume per gland, xenografts, % of vehicle (MDA-MB-231 cells [1]; SCID/NOD mice, PPP i.p. for 3 weeks, vehicle = 100): 70.7%; Effect on IGF1 RK kinase activity (in words) [3]: inhibits its kinase activity; In vitro viability of MDA-MB-231 cells (in words) (MDA-MB-231 cells [4]): drastically reduced; Increase in apoptosis in the pale component (activated caspase 3 immunohistochemistry) versus vehicle ([5]; 3 days of administration): ~9 fold; Proliferation (proliferation indices) in tumors ([5]; 3 days of treatment): at control levels; Total tumor volume per mouse ([6]; after 21 days of daily treatment, vehicle 653±219, p=0.05): 54±28 mm^3; % tumor volume in comparison with the control, normalized to the new control data ([6]; previous PPP value re-normalized to pooled vehicle control): 6.5%; Effect on the homologous insulin receptor (in words) (insulin receptor): not affected
2 | COc1cccc([C@@H]2c3cc4c(cc3[C@H](O)C3COC(=O)[C@H]32)OCO4)c1 (stereo partly drawn) [Compound 18, 4′,5′-Didemethoxy-(−)-picropodophyllin] | 0.5245 | 0.483 and 0.566 |  |  |  | as effective as PPP | 20.9 ± 10.8 | same potency as PPP | 6.5 | IC50 ([2]; Mus musculus, read-out: IC50 for growth inhibition of Kras* breast cancer cell line): ~400 nM
3 | COc1ccc([C@@H]2c3cc4c(cc3[C@H](O)C3COC(=O)[C@H]32)OCO4)cc1 (stereo partly drawn) [Compound 19, 3′,5′-Didemethoxy-(−)-picropodophyllin] |  |  |  |  |  | essentially no activity |  |  |  | 
4 | COc1cc(OC)cc([C@@H]2c3cc4c(cc3[C@H](O)C3COC(=O)[C@H]32)OCO4)c1 (stereo partly drawn) [Compound 21, 4′-Demethoxy-(−)-picropodophyllin] | 0.4845 | 0.505 and 0.464 |  |  |  |  | 2.1 ± 1.0 | 7 times | 0.9 | 
5 | C#Cc1cccc(Nc2ncnc3cc(OCCOC)c(OCCOC)cc23)c1 [Erlotinib] |  |  | reduced predominantly the pale cell component | 66.9 ± 29.3 | 30.7% |  |  |  |  | 
